Conditions: Liquid, Bellows volumetry

CCCCn1cc[n+](C)c1.F[B-](F)(F)F [1-butyl-3-methylimidazolium tetrafluoroborate]
mass density [kg/m3]
Conditions	313.1 K	332.6 K	352.6 K	372.7 K	392.8 K	412.9 K	432.6 K	452.3 K	472.2 K
100 kPa	1191	–	–	–	–	–	–	–	–
10000 kPa	1195	1182	1168	1155	1142	1129	1116	1102	1090
20000 kPa	1200	1186	1173	1160	1148	1135	1122	1108	1096
30000 kPa	1204	1191	1178	1165	1153	1140	1127	1115	1102
40000 kPa	1208	1195	1182	1170	1158	1145	1133	1120	1108
50000 kPa	1212	1200	1187	1174	1163	1150	1138	1126	1114
60000 kPa	1216	1204	1191	1179	1167	1155	1143	1131	1119
70000 kPa	1220	1208	1195	1183	1172	1160	1148	1136	1124
80000 kPa	1224	1212	1199	1187	1176	1164	1152	1140	1129
90000 kPa	1227	1215	1203	1191	1180	1169	1157	1145	1134
100000 kPa	1231	1219	1207	1195	1184	1173	1161	1150	1139
110000 kPa	1234	1223	1211	1199	1188	1177	1165	1154	1143
120000 kPa	1238	1226	1214	1203	1192	1181	1170	1158	1147
130000 kPa	1241	1229	1218	1206	1195	1185	1173	1162	1152
140000 kPa	1244	1233	1221	1210	1199	1189	1177	1166	1156
150000 kPa	1248	1236	1225	1213	1203	1192	1181	1170	1160
160000 kPa	1251	1239	1228	1217	1206	1196	1185	1174	1164
170000 kPa	1254	1243	1231	1220	1210	1199	1188	1177	1167
180000 kPa	1257	1246	1234	1223	1213	1203	1192	1181	1171
190000 kPa	1260	1249	1237	1227	1216	1206	1195	1185	1175
200000 kPa	1263	1252	1241	1230	1220	1210	1199	1188	1178
